Patent US7772179B2, “Photodynamic therapy using chemiluminescence and a ligand-photosensitiser conjugate” (priority 2005, dated 2010)

Assays:
FL cells [1] = experiment: LTC cytotoxicity assay (PDT with ambient fluorescent light), trypan blue exclusion; type: cell-based
Method: (§1) (C); 0.5-1×10^5 cells/ml were cultured for 2 hr in the dark in medium alone or containing Hp or Tf-Hp (0-3 μM), washed, exposed to ambient fluorescent light for 16 hrs at room temperature and then re-cultured in full medium for 24 hrs. Cell viability was assessed by trypan blue exclusion. The data represent the mean and standard deviation from at least 3 experiments;
(§2) Late log-phase cells were washed with DMEM pre-warmed to 37° C. and cultured at 0.5-1×10^5 cells/ml either alone or with increasing concentrations of Tf-Hp LTC for 2 hrs at 37° C. in 6% CO2. Cells were then washed with DMEM, exposed to ambient fluorescent light (fluence rate=0.5 mW/cm^2) for 12-16 hours and then re-cultured in full medium for 24 hrs. […] Experiments were repeated at least three times.

K562 cells = experiment: as above; type: cell-based, Human; conditions: K-562 cells, external ambient fluorescent light
Method: as §1, §2

FL cells [2] = conditions: in the dark

| SMILES | maximum cytotoxicity (LDMAX) (FL cells [1]; FL cells, external ambient fluorescent light) [%] | sensitivity of FL cells relative to K-562 at LDMAX (FL cells [1]; free Hp treatment, FL versus K-562) | maximum activity (cytotoxicity) (FL cells [1]; optimization of the LTC cytotoxicity assay, about 2 hr exposure, cell line not stated) [%] | maximum cytotoxicity (LDMAX) (K562 cells) [%] | maximum cytotoxicity together with luminol (FL cells [2]; together with 10 μM luminol, no external light) [%] | cytotoxicity, luminol alone (FL cells [2]; 10 μM luminol, no Ps) |
| --- | --- | --- | --- | --- | --- | --- |
| CC1=C(CCC(=O)O)c2cc3[nH]c(cc4nc(cc5[nH]c(cc1n2)c(C)c5C(C)O)C(C)=C4C(C)O)c(C)c3CCC(=O)O (stereo not drawn) [Hp, hematoporphyrin] | 90 | 16.6 | 24 | 90 | 30 | – |
| Nc1cccc2c(=O)[nH][nH]c(=O)c12 [luminol, 5-amino-2-3-dihydro-1,4-phtalazinedione] | – | – | – | – | – | about 15% |
